Source: article PMC10291553, “Exploring Structure–Activity Relationships in Photodynamic Therapy Anticancer Agents Based on Ir(III)-COUPY Conjugates” (Journal of Medicinal Chemistry, 2023)
Read-outs that look alike come from different tables or passages of the source.

System: A2780cis cells
Assay: Photo- and cytotoxic activity determination (MTT), A2780cis cells, normoxia or hypoxia
Assay type: cell-based
Details: A2780cis; for inhibition at 250 µM: 2 h incubation in the dark, 48 h drug-free recovery
Excerpt: Having shown that the Ir(III)-COUPY conjugates can sensitize both type I and II ROS through spectroscopic techniques and readily internalize into living cells, their photocytotoxicity was screened in various cancer cell lines. This screening included two representative melanoma cell lines (human A375 and […] human SK-MEL-28) and cancer cells with resistance to the clinical drug cisplatin. For the latter, both sensitive and cisplatin-resistant ovarian cancer cells (A2780 and A2780cis) as well as HeLa cells, which also show a degree of chemoresistance to the platinum anticancer drug in vitro,[54] were used. For the determination of dark and light cytotoxicity, dose–response curves were assayed from both conditions to provide the correspondent IC50 values, which correspond to the concentration needed for inhibition of cell growth by 50%. Phototherapeutic index (PI) was calculated as the ratio of dark to light IC50 value for each compound.
A375, HeLa, and SK-MEL-28 cells were cultured in Dulbecco’s modified Eagle medium (DMEM) supplemented with 10% FBS, L-glutamine, and 1% penicillin–streptomycin. A2780 and A2780cis cells were grown in RPMI-1640 cell medium supplemented with 10% fetal bovine serum (FBS) and 2 mM L-glutamine. Acquired resistance to cisplatin in the A2780cis cell line was maintained by adding cisplatin 1 μM to culture medium every second passage. Cells were cultured in a humidified incubator at 310 K with 5% CO2 atmosphere and subcultured two or three times a week with appropriate densities and were confirmed to be mycoplasma-free using a standard Hoechst DNA staining method.
A2780, A2780cis, HeLa, A375, and SK-MEL-28 cells were maintained at logarithmic growth-phase and cultured in 96-well plates at a density of 5000 cells/well in complete medium for 24 h at 310 K, 5% CO2 in a humidified incubator. For hypoxia experiments, a hypoxia condition was set up by Tissue Culture Service at University of Murcia using nitrogen (N2) to displace O2 down to a minimum of 2% in a Forma Steri-Cycle i160 incubator (Thermo Fisher Scientific). […] A light-based treatment schedule was performed as follows: 1 h incubation with the compounds in the dark, followed by 1 h incubation under irradiation conditions by placing the Photoreactor EXPO-LED from Luzchem (Canada) fitted with green lamps (final light intensity applied of 1.5 mW/cm^2 at λmax = 520 nm) inside the CO2 incubator. All the cell culture plates subjected to light irradiation included untreated controls to verify that cell viability was not affected by light. Then, treatment-containing media was removed, and fresh media was added for a 48 h cell recovery period; the temperature throughout the experiment remained at 310 K. Dark control samples were placed in the same dark conditions and then kept incubated for 1 h in the dark in the humidified CO2 incubator. Medium was then aspirated by suction, cells were loaded with 50 μL of MTT solution (1 mg/mL) for additional 4 h and then removed, and 50 μL of DMSO was added to solubilize the purple formazan crystals formed in active cells. The absorbance was measured at 570 nm using a microplate reader (FLUOstar Omega), and the IC50 values were calculated based on the inhibitory rate curves using the following equation [drawing 4] 4 where I represents the percentage inhibition of viability observed, Imax is the maximal inhibitory effect, IC50 is the concentration that inhibits 50% of maximal growth, C is the concentration of the treatment, and n is the slope of the semi-logarithmic dose–response sigmoidal curves. The non-linear fitting was performed using SigmaPlot 14.0 software. All experiments were performed in three independent studies with n = 3 replicates per concentration level. For a detailed phototoxicity procedure, ref ([43]) includes technical explanations.

**Q.** For `NCC(=O)CCC(=O)O` [5-ALA, 5-aminolevulinic acid, reference compound], which inhibition at 250 µM (hypoxia, read-out: Partial inhibition (% of cell growth inhibition with respect to untreated controls), Hypoxia) is on record?
**A.** 1 ± 0.2%

**Q.** And the inhibition at 250 µM (normoxia, read-out: Partial inhibition (% of cell growth inhibition with respect to untreated controls), Normoxia)?
**A.** 3.5 ± 0.4%

**Q.** And the IC50 (hypoxia 2% O2, 1 h incubation + 1 h green light 520 nm, 48 h drug-free, read-out: Hypoxia 520 nm IC50)?
**A.** > 250 µM

**Q.** And the IC50 (hypoxia 2% O2, dark, tested up to 250 μM, read-out: Hypoxia Dark IC50)?
**A.** > 250 µM

**Q.** And the IC50 (hypoxia, 520 nm, read-out: A2780cis Light 520 nm IC50 (microM) Hypoxia)?
**A.** > 250 µM

**Q.** And the IC50 (hypoxia, dark, read-out: A2780cis Dark IC50 (microM) Hypoxia)?
**A.** > 250 µM

**Q.** What about the “Normoxia PI (phototherapeutic index)” value (normoxia 21% O2, 520 nm, dark tested up to 250 μM) of the same compound?
**A.** > 4.0

**Q.** And the IC50 (normoxia 21% O2, dark, tested up to 250 μM, read-out: Normoxia Dark IC50)?
**A.** > 250 µM

**Q.** And the IC50 (normoxia, 520 nm, read-out: A2780cis Light 520 nm IC50 (microM) Normoxia)?
**A.** 62 ± 12 µM

**Q.** And the IC50 (normoxia, dark, up to 250 microM, read-out: A2780cis Dark IC50 (microM) Normoxia)?
**A.** > 250 µM
